Key:
T-47D = experiment: NCI DTP cell line screen (SRB), Breast Cancer; format: cell-based
Experimental: (§1) Screening of compounds 70 and 71 against several cancer cell lines The human tumor cell lines of the cancer screening panel are grown in RPMI 1640 medium containing 5% fetal bovine serum and 2 mM L-glutamine. For a typical screening experiment, cells are inoculated into 96 well microtiter plates in 100 μL at plating densities ranging from 5,000 to 40,000 cells/well depending on the doubling time of individual cell lines. After cell inoculation, the microtiter plates are incubated at 37° C., 5% CO2, 95% air and 100% relative humidity for 24 h prior to addition of experimental drugs.
(§2) After 24 h, two plates of each cell line are fixed in situ with TCA, to represent a measurement of the cell population for each cell line at the time of drug addition (Tz). Experimental drugs are solubilized in dimethyl sulfoxide at 400-fold the desired final maximum test concentration and stored frozen prior to use. At the time of drug addition, an aliquot of frozen concentrate is thawed and diluted to twice the desired final maximum test concentration with complete medium containing 50 μg/ml gentamicin. Additional four, 10-fold or ½ log serial dilutions are made to provide a total of five drug concentrations plus control. Aliquots of 100 μl of these different drug dilutions are added to the appropriate microtiter wells already containing 100 μl of medium, resulting in the required final drug concentrations.
(§3) Following drug addition, the plates are incubated for an additional 48 h at 37° C., 5% CO2, 95% air, and 100% relative humidity. For adherent cells, the assay is terminated by the addition of cold TCA. Cells are fixed in situ by the gentle addition of 50 μl of cold 50% (w/v) TCA (final concentration, 10% TCA) and incubated for 60 minutes at 4° C. The supernatant is discarded, and the plates are washed five times with tap water and air dried. Sulforhodamine B (SRB) solution (100 μl) at 0.4% (w/v) in 1% acetic acid is added to each well, and plates are incubated for 10 minutes at room temperature. After staining, unbound dye is removed by washing five times with 1% acetic acid and the plates are air dried. Bound stain is subsequently solubilized with 10 mM trizma base, and the absorbance is read on an automated plate reader at a wavelength of 515 nm. For suspension cells, the methodology is the same except that the assay is terminated by fixing settled cells at the bottom of the wells by gently adding 50 μl of 80% TCA (final concentration, 16% TCA). Using the seven absorbance measurements [time zero, (Tz), control growth, (C), and test growth in the presence of drug at the five concentration levels (Ti)], the percentage growth is calculated at each of the drug concentrations levels. Percentage growth inhibition is calculated as: [(Ti−Tz)/(C−Tz)]×100 for concentrations for which Ti>/=Tz [(Ti−Tz)/Tz]×100 for concentrations for which Ti<Tz
(§4) Three dose response parameters are calculated for each experimental agent. […] The drug concentration resulting in total growth inhibition (TGI) is calculated from Ti=Tz. […] Values are calculated for each of these three parameters if the level of activity is reached; however, if the effect is not reached or is exceeded, the value for that parameter is expressed as greater or less than the maximum or minimum concentration tested.
(§5) The methods described were used to test compounds 70 and 71 on a panel of sixty cell lines under a screening service provided by the Developmental Therapeutics Program at the National Institutes of Health. Shown in FIG. 1C are 1, RPMI-8226 leukemia cells; 2; NCI-H322M non-small cell lung cancer cells; 3, HT29 colon cancer cells; 4, U251 CNS cancer cells; 5, SK-MEL-28 melanoma cancer cells; 6, SK-OV-3 ovarian cancer cells; 7, RXF 393 renal cancer cells; 8, PC-3 prostate cancer cells; 9, MDA-MB-231 breast cancer cells.

NCI/ADR-RES = experiment: NCI DTP cell line screen (SRB), Breast Cancer; format: cell-based
Experimental: as §1, §2, §3, §4, §5

HS 578T = experiment: NCI DTP cell line screen (SRB), Breast Cancer; format: cell-based
Experimental: as §1, §2, §3, §4, §5

MDA-MB-231/ATCC = experiment: NCI DTP cell line screen (SRB), Breast Cancer; format: cell-based
Experimental: as §1, §2, §3, §4, §5

NCI-H522 = experiment: NCI DTP cell line screen (SRB), Non-Small Cell Lung Cancer; format: cell-based, human
Experimental: as §1, §2, §3, §4, §5

COLO 205 = experiment: NCI DTP cell line screen (SRB), Colon Cancer; format: cell-based, human
Experimental: as §1, §2, §3, §4, §5

[1] = test system: sixty human tumor cell lines; experiment: NCI DTP screen, means over sixty human tumor cell lines; format: cell-based; conditions: two-day treatment
Experimental: as §1, §2
Following drug addition, the plates are incubated for an additional 48 h at 37° C., 5% CO2, 95% air, and 100% relative humidity. For adherent cells, the assay is terminated by the addition of cold TCA. Cells are fixed in situ by the gentle addition of 50 μl of cold 50% (w/v) TCA (final concentration, 10% TCA) and incubated for 60 minutes at 4° C. […] Bound stain is subsequently solubilized with 10 mM trizma base, and the absorbance is read on an automated plate reader at a wavelength of 515 nm. […] Using the seven absorbance measurements [time zero, (Tz), control growth, (C), and test growth in the presence of drug at the five concentration levels (Ti)], the percentage growth is calculated at each of the drug concentrations levels. Percentage growth inhibition is calculated as: [(Ti−Tz)/(C−Tz)]×100 for concentrations for which Ti>/=Tz [(Ti−Tz)/Tz]×100 for concentrations for which Ti<Tz
as §4, with “tested. […]” for “tested.”

SK-MEL-5 = experiment: NCI DTP cell line screen (SRB), Melanoma; format: cell-based, human
Experimental: as §1, §2, §3, §4, §5

CCRF-CEM = experiment: NCI DTP cell line screen (SRB), Leukemia; format: cell-based

Q: What does the source list for `NCC(=O)Nc1ccc(-n2nc(C(F)(F)F)cc2-c2ccc3c(ccc4ccccc43)c2)cc1` [Compound 70, 2-Amino-N-{4-[5-(2-phenanthrenyl)-3-(trifluoromethyl)-1H-pyrazol-1-yl]-phenyl}-acetamide]?
A: TGI (T-47D): 4.21E−06; Percent Growth (T-47D; Log10 Concentration −4.0): −44%; Percent Growth (T-47D; Log10 Concentration −5.0): −52%; Percent Growth (T-47D; Log10 Concentration −6.0): 86%; Percent Growth (T-47D; Log10 Concentration −7.0): 109%; Percent Growth (T-47D; Log10 Concentration −8.0): 84%; TGI (NCI/ADR-RES): 2.85E−06; Percent Growth (NCI/ADR-RES; Log10 Concentration −4.0): −62%; Percent Growth (NCI/ADR-RES; Log10 Concentration −5.0): −59%; Percent Growth (NCI/ADR-RES; Log10 Concentration −6.0): 49%; Percent Growth (NCI/ADR-RES; Log10 Concentration −7.0): 98%; Percent Growth (NCI/ADR-RES; Log10 Concentration −8.0): 98%; TGI (HS 578T; HS 578T): 5.25E−06; Percent Growth (HS 578T; HS 578T, Log10 Concentration −4.0): −38%; Percent Growth (HS 578T; HS 578T, Log10 Concentration −5.0): −34%; Percent Growth (HS 578T; HS 578T, Log10 Concentration −6.0): 88%; Percent Growth (HS 578T; HS 578T, Log10 Concentration −7.0): 99%; Percent Growth (HS 578T; HS 578T, Log10 Concentration −8.0): 105%; CC50 (HS 578T; Homo sapiens, Hs-578T, read-out: LC50): > 100 µM; TGI (MDA-MB-231/ATCC): 2.77E−06; Percent Growth (MDA-MB-231/ATCC; Log10 Concentration −4.0): −52%; Percent Growth (MDA-MB-231/ATCC; Log10 Concentration −5.0): −73%; Percent Growth (MDA-MB-231/ATCC; Log10 Concentration −6.0): 58%; Percent Growth (MDA-MB-231/ATCC; Log10 Concentration −7.0): 71%; Percent Growth (MDA-MB-231/ATCC; Log10 Concentration −8.0): 100%; Percent Growth (NCI-H522; Log10 Concentration −4.0): −37%; Percent Growth (NCI-H522; Log10 Concentration −5.0): −66%; Percent Growth (NCI-H522; Log10 Concentration −6.0): 97%; Percent Growth (NCI-H522; Log10 Concentration −7.0): 122%; Percent Growth (NCI-H522; Log10 Concentration −8.0): 110%; TGI (NCI-H522; in M (unit assumed)): 3.94E−06; Percent Growth (COLO 205; Log10 Concentration −4.0): 1%; Percent Growth (COLO 205; Log10 Concentration −5.0): −53%; Percent Growth (COLO 205; Log10 Concentration −6.0): 58%; Percent Growth (COLO 205; Log10 Concentration −7.0): 87%; Percent Growth (COLO 205; Log10 Concentration −8.0): 89%; mean TGI among the sixty cell lines [1]: 3.2 µM; Percent Growth (SK-MEL-5; Log10 Concentration −4.0): −34%; Percent Growth (SK-MEL-5; Log10 Concentration −5.0): −75%; Percent Growth (SK-MEL-5; Log10 Concentration −6.0): 69%; Percent Growth (SK-MEL-5; Log10 Concentration −7.0): 88%; Percent Growth (SK-MEL-5; Log10 Concentration −8.0): 91%; TGI (SK-MEL-5; in M (unit assumed)): 3.02E−06; TGI (CCRF-CEM): 2.49E−06; Percent Growth (CCRF-CEM; Log10 Concentration −4.0): −34%; Percent Growth (CCRF-CEM; Log10 Concentration −5.0): −43%; Percent Growth (CCRF-CEM; Log10 Concentration −6.0): 28%; Percent Growth (CCRF-CEM; Log10 Concentration −7.0): 81%; Percent Growth (CCRF-CEM; Log10 Concentration −8.0): 74%

— US8541460B2, “PDK-1/Akt signaling inhibitors” (The Ohio State University, priority 2003, dated 2013)
